# Values quoted from earlier work in patent publication US11643417B2, “Tetrahydrobenzofurodiazepinone compound and pharmaceutical use thereof” (priority 2020, dated 2023).
# Columns and labels:
# [1] = test system: mouse cancer-bearing model; conditions: Non-Patent Documents 16 and 17; cited from earlier work
# mouse LN model animals = conditions: Non-Patent Document 18; cited from earlier work
# [2] = test system: cells derived from chronic myelogenous leukemia; conditions: Non-Patent Document 15; cited from earlier work
smiles,measurement,setting,value
C[C@H]1CN(c2c(NC(=O)c3ccc(F)c(-c4c(F)cccc4F)n3)cnc3c2CC[C@H]3O)C[C@@H](N)[C@@H]1O [INCB053914],tumor growth inhibitory effect,[1],tumor growth inhibitory effect
O=C1NC(=O)/C(=C/c2cccc(C(F)(F)F)c2)S1 [SMI-4a],glomerular damage,mouse LN model animals,reduce glomerular damage
same,mortality,mouse LN model animals,improve mortality
same,urinary albumin/creatinine ratio,mouse LN model animals,reduce urinary albumin/creatinine ratio
same,growth inhibitory and apoptosis-inducing effects,[2],growth inhibitory and apoptosis-inducing effects
